Tested on: endoperoxide cyclooxygenase (PG synthetase)
Experiment: Inhibition of oxygen uptake in the conversion of unsaturated fatty acid to prostaglandin endoperoxides (cyclooxygenase / PG synthetase inhibition, standard in vitro laboratory test)
Assay type: biochemical
Excerpt: The novel prostacyclin analogs disclosed herein are all inhibitors of endoperoxide cyclooxygenase, an enzyme which converts unsaturated fatty acids (e.g., arachadonic acid) to prostaglandin endoperoxide intermediate (e.g., PGH2). The inhibition of this enzyme (also known as PG synthetase) is established as a standard in vitro laboratory test which measures oxygen uptake in the conversion of the unsaturated fatty acid to the endoperoxides, e.g., [drawing 22]
The efficacy of the novel prostacyclin analogs herein as inhibitors of cyclooxygenase (PG synthetase) is indicated in the following comparison between 2-(acetylozy)benzoic acid (aspirin) and 7,8-didehydro-6β-PGI1, methyl ester:
For further description of PG synthetase inhibition, see Vane, Nature New Biology, 231-232 (1971) and Takeguchi, et al., Prostaglandins 2:169 (1972).

CCCCC[C@H](O)/C=C/[C@@H]1C2=C[C@H](CCCCC(=O)OC)O[C@H]2C[C@H]1O [7,8-Didehydro-6β-PGI methyl ester, 7,8-didehydro-6β-PGI1, methyl ester]
Percent inhibition of Oxygen Uptake (Concentration 5 × 10^-4 M): 46%

CC(=O)Oc1ccccc1C(=O)O [2-(Acetyloxy)-benzoic acid, 2-(acetyloxy)benzoic acid]
Percent inhibition of Oxygen Uptake (Concentration 5 × 10^-4 M): 100% | Percent inhibition of Oxygen Uptake (Concentration 5 × 10^-5 M, result in words): Inactive

Source: patent US4160095A, “7,8-Didehydro-PGI1 amides” (The Upjohn Company, priority 1978, dated 1979)
